This note sets out measurements from US20100074939A1 (OsteoGeneX Inc., priority 2008, published 2010).

For assay [1], the system named is mouse. The experiment in a line: Bone formation in treated vs control mice by micro-CT (Example 1). Format: in vivo. As to conditions: test vs control solution, after complete dosing schedule. The source says: Compounds useful in the methods of the present invention can be identified via a variety of methods known to one of skill in the art. Several exemplary methods for identifying such antagonists are described herein, including cell-based and in vitro techniques (Journal of Bone and Mineral Research 2006, 21(11), 1738-1749). A general method of identifying SOST antagonists involves evaluating the effects of antagonist candidates on bone formation under controlled conditions. Preferably bone formation is determined using micro-CT techniques on live animals. Preferred animals include rodents, more preferred are primates. Femur, tibia and vertebrae bones are particularly useful subjects for such study.
Briefly, the test animal is treated with a predetermined dose of a SOST antagonist candidate. […]
Once the dosing schedule has been completed, both test and control animals are examined to determine the quantity of bone formation present. […] Where necessary, levels of bone formation can be calculated by determining the volume of bone formation present in each animal. […]
For example, the mouse test animal is treated with a predetermined dose of a SOST antagonist candidate for a complete dosing schedule. […] Once the dosing schedule has been completed, both test and control animals are examined with sacrifice using micro-CT to determine the quantity of bone formation present.

Assay [2] relates to C57BL/6 mice. The experiment in a line: Lumbar vertebra L5 bone volume by uCT, 30-day i.p. study. To be noted: measured by uCT; male C57BL/6 mice, daily i.p. 30 days; dose not stated. It is filed as in vivo, mouse. The protocol:
(§1) Four month old male C57BL/6 mice were treated daily with saline vehicle or the sclerostin inhibitor of harmine hydrochloride at 20 (“L”), 40 (“M”) or 90 (“H”) mg/kg (via i.p) for 30 days. Study endpoints included measurement of femur bone volume by pQCT analysis (FIG. 2), and a biochemical marker of bone formation, osteocalcin, measured by EIA Elisa (FIG. 3). […] Lumbar vertebra L5 bone volume increased 2% over saline baseline, as measured by uCT, and 73%, as measured by DEXA Piximus.

Assay [3] relates to Wnt pathway. Briefly: Wnt pathway modulation to promote bone growth (FIG. 1). As to conditions: doses of 2.5 ng (low), 60 ng (medium), 125 ng (high). The protocol: For example, the mouse test animal is treated with a predetermined dose of a SOST antagonist candidate for a complete dosing schedule. A control mouse is treated with a control solution, preferably a non-irritating buffer solution or other carrier. Once the dosing schedule has been completed, both test and control animals are examined with sacrifice using micro-CT to determine the quantity of bone formation present.

The subject of assay [4] is C57BL/6 mice. The experiment in a line: Serum osteocalcin bone formation marker by EIA Elisa, 30-day i.p. study (FIG. 3). Format: in vivo, mouse. To be noted: male C57BL/6 mice, 40 mg/kg daily i.p. 30 days. How it is done: as §1
Assay [5] relates to C57BL/6 mice. Briefly: Femur bone density/volume by pQCT, 30-day i.p. study (FIG. 2). To be noted: male C57BL/6 mice, daily i.p. 30 days, 40 mg/kg. Format: in vivo, mouse. How it is done: as §1
Assay [6] deals with C57BL/6 mice. Briefly: Lumbar vertebra L5 bone volume by DEXA Piximus, 30-day i.p. study. Format: in vivo, mouse. As to conditions: measured by DEXA Piximus; male C57BL/6 mice, daily i.p. 30 days; dose not stated. How it is done: as §1

Where a name gives a salt, the structure may show the parent alone.

With `COc1ccc2c(c1)[nH]c1c(C)nccc12` [harmine hydrochloride], the “bone growth (quantity of bone formation by micro-CT)” value in assay [1] was “promoting bone growth”. Moreover, the “Lumbar vertebra L5 bone volume increase over saline baseline” value in assay [2] is 2%; in assay [6], 73%. Moreover, the “modulation of the Wnt pathway to promote bone growth” value in assay [3] was “modulating the Wnt pathway to promote bone growth”. Besides, in assay [4], the “percent increase in serum osteocalcin bone formation marker over saline controls” value is on record as 65%. In addition, in assay [5], the “increase over baseline for femur bone density” value is reported as 13%.
